How the values were obtained:
[1] = target: human A2b adenosine receptor (Homo sapiens (Human), UniProt P29275); test: A2b radioligand filtration binding assay; settings: membranes from HEK293 cells expressing human A2b receptor
Method: Measurement of A2b Binding Affinity
The reported affinity of the compounds of the invention for the human A2b adenosine receptor was determined experimentally using a radioligand filtration binding assay. This assay measures the amount of binding of a tritiated proprietary A2b receptor antagonist, in the presence and absence of a compound of the invention, to membranes made from HEK293 cells recombinantly expressing the human A2b adenosine receptor (Perkin Elmer, Cat. No. ES-013-C).
148 μL (135 μg/mL) membranes and 2 μL test compounds were transferred to individual wells of a 96-well polypropylene assay plate and incubated for 15 to 30 minutes at room temperature with agitation. Tritiated radioligand was diluted to a concentration of 14 nM in assay buffer (phosphate buffered saline without Magnesium and Calcium, pH 7.4; GE Healthcare Life Sciences, Cat. No. SH30256.01) and then 50 μL of the solution were transferred to each well of the assay plate. To define total and non-specific binding, wells containing 1% DMSO and 20 μM N-ethylcarboxamidoadenosine (Tocris Bioscience, Cat. No. 1691) respectively, were also included. The wells of the assay plate were incubated at room temperature for 60 minutes with agitation, then filtered using a FilterMate Harvester® (Perkin Elmer) or similar equipment through a UniFilter-96® PEI coated plate (Perkin Elmer Cat. No. 6005274 or 6005277). Filtering was achieved by aspirating the contents of the assay plate for 5 seconds, then washing and aspirating the contents three times with ice-cooled wash buffer (assay buffer supplemented with 0.0025% Brij58) and allowing the vacuum manifold to dry the plate for 30 seconds. The filter plate was incubated for at least 1 hour at 55° C. and allowed to dry. The bottom of the filter plate was then sealed with backing tape. 40 μL Ultima Gold™ (Perkin Elmer, Cat. No. 6013329) was added to each well of the filter plate and the top of the plate was sealed with TopSeal-A PLUS® clear plate seal (Perkin Elmer, Cat. No. 6050185). The plates were then incubated for at least 20 minutes, and then the amount of radioactivity remaining in each well was determined using a TopCount® (Perkin Elmer) scintillation counter. After normalization to total and non-specific binding, the percent effect at each compound concentration was calculated. The plot of percent effect versus the log of compound concentration was analyzed electronically using a 4-parameter logistic fit based on the Levenberg-Marquardt algorithm to generate IC50 values.

[2] = target: human A2a adenosine receptor (Homo sapiens (Human), UniProt P29274); test: A2a receptor affinity radioligand binding assay ([3H] SCH58261); settings: for IC50: membranes from HEK293 or CHO cells expressing human A2a receptor
Method: The A2a receptor affinity binding assay measured the amount of binding of a tritiated ligand with high affinity for the A2a adenosine receptor to membranes made from HEK293 or CHO cells recombinantly expressing the human A2a adenosine receptor, in the presence of varying concentrations of a compound of the invention.
Measurement of A2a Binding Affinity Using Radioligand Binding
148 μL (5 μg/mL) membranes (Perkin Elmer, Cat. No. RBHA2aM400UA) and 2 μL compounds of the invention to be tested (test compound) were transferred to individual wells of a 96-well polypropylene assay plate and incubated for 15 to 30 minutes at room temperature. [^3H] SCH58261 ((7-(2-phenylethyl)-5-amino-2-(2-furyl)-pyrazolo-[4,3-e]-1,2,4-triazolo[1,5-c]pyrimidine)) was diluted in assay buffer (50 mM Tris pH 7.4, 10 mM MgCl2, 0.005% Tween20) to a concentration of 4 nM and 50 μL transferred to each well of the assay plate. To define total and non-specific binding, wells containing 1% DMSO and 1 μM ZM241385 (Tocris Bioscience, Cat. No. 1036) respectively, were also included. The assay plate was incubated at room temperature for 60 minutes with agitation. Using a FilterMate Harvester® (Perkin Elmer), the contents of the assay plate were filtered through a UniFilter-96® PEI coated plate (Perkin Elmer Cat. No. 6005274 or 6005277). Filtering was achieved by aspirating the contents of the assay plate for 5 seconds, then washing and aspirating the contents three times with ice-cooled wash buffer (50 mM Tris-HCl pH 7.4, 150 mM NaCl) and allowing the vacuum manifold to dry the plate for 30 seconds. The filter plate was incubated for at least 1 hour at 55° C., and allowed to dry. The bottom of the filter plate was sealed with backing tape. 40 μL Ultima Gold™ (Perkin Elmer, Cat. No. 6013329) was added to each well of the filter plate and the top of the plate was sealed with TopSeal-A PLUS® clear plate seal (Perkin Elmer, Cat. No. 6050185). The plate was incubated for at least 20 minutes, and then the amount of radioactivity remaining in each well was determined using a TopCount® (Perkin Elmer) scintillation counter. After normalization to total and non-specific binding, the percent effect at each compound concentration was calculated. The plot of percent effect versus the log of compound concentration was analyzed electronically using a 4-parameter logistic fit based on the Levenberg-Marquardt algorithm to generate IC50 values.

Chain of human A2a adenosine receptor (P29274 whole entry): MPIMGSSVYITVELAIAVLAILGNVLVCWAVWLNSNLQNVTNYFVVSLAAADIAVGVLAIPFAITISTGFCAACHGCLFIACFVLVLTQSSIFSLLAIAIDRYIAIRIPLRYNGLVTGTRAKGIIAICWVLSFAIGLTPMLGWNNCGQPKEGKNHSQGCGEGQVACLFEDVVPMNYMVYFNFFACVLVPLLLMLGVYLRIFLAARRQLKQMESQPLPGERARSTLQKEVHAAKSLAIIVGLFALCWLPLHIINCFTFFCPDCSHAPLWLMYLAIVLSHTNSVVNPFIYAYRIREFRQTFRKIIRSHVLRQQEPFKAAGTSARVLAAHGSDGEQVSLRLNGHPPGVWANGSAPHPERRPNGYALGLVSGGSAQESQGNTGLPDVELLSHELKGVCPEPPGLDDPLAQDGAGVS
Chain of human A2b adenosine receptor (P29275 whole entry): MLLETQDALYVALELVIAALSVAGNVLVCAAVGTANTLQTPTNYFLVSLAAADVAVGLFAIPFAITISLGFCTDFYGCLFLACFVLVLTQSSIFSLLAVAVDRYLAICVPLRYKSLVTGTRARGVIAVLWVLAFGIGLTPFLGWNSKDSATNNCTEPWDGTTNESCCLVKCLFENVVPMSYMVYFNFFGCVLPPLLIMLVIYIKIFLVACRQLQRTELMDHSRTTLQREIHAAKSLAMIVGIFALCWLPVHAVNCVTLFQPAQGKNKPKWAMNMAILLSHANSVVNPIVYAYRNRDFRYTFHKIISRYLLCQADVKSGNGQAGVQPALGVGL

SMILES	IC50 [1]	IC50 [2]	A2A binding % Inh. @ 1000 nM ([2]; @ 1000 nM)
COc1cc(F)cc2c1nc(N)n1nc([C@@H]3CCCN(c4ccc(OC(F)F)nc4)C3)nc21 [Example 33, (R)-2-(1-(6-(difluoromethoxy)pyridin-3-yl)piperidin-3-yl)-9-fluoro-7-methoxy-[1,2,4]triazolo[1,5-c]quinazolin-5-amine]	17.5 nM	3.6 nM	
CCn1cc([C@@]2(O)CCCC(c3nc4c5cc(F)c(OC)cc5nc(N)n4n3)C2)cn1 (single isomer, unassigned) [Example 146, (1R or 1S,3R or 3S)-3-(5-amino-9-fluoro-8-methoxy-[1,2,4]triazolo[1,5-c]quinazolin-2-yl)-1-(1-ethyl-1H-pyrazol-4-yl)cyclohexan-1-ol]	137 nM	2.1 nM	
COc1cc2nc(N)n3nc(C4CCCN(c5cnn(CC(C)(C)O)c5)C4=O)nc3c2cc1F (racemic) [Example 139, rac-3-(5-amino-9-fluoro-8-methoxy-[1,2,4]triazolo[1,5-c]quinazolin-2-yl)-1-(1-(2-hydroxy-2-methylpropyl)-1H-pyrazol-4-yl)piperidin-2-one]	2820 nM	16.8 nM	
COc1cc2nc(N)n3nc([C@@H]4CC[C@H](C)N(c5cnn(C(C)C(C)(C)O)c5)C4)nc3c2cc1F (single isomer, unassigned) [Example 48, (R or S)-3-(4-((2S,5R or 2R,5S)-5-(5-amino-9-fluoro-8-methoxy-[1,2,4]triazolo[1,5-c]quinazolin-2-yl)-2-methylpiperidin-1-yl)-1H-pyrazol-1-yl)-2-methylbutan-2-ol]	17.6 nM	0.6 nM	
Cn1cc(N2CCCC(c3nc4c5c(F)c(F)ccc5nc(N)n4n3)C2)cn1 (single isomer, unassigned) [Example 107, (R or S)-9,10-difluoro-2-(1-(1-methyl-1H-pyrazol-4-yl)piperidin-3-yl)-[1,2,4]triazolo[1,5-c]quinazolin-5-amine]	1520 nM	127 nM	
COc1cc2nc(N)n3nc([C@@H]4C[C@H](C)CN(c5cnn(CC(C)(C)O)c5)C4)nc3c2cc1F (single isomer, unassigned) [Example 90, 1-(4-((3R,5S or 3S,5R)-3-(5-amino-9-fluoro-8-methoxy-[1,2,4]triazolo[1,5-c]quinazolin-2-yl)-5-methylpiperidin-1-yl)-1H-pyrazol-1-yl)-2-methylpropan-2-ol]	29 nM	1.2 nM	
COc1cc2nc(N)n3nc([C@@H]4CCCN(c5cn(CS(C)(=O)=O)nc5C)C4)nc3c2cc1F [Example 129, (R)-9-fluoro-8-methoxy-2-(1-(3-methyl-1-((methylsulfonyl)methyl)-1H-pyrazol-4-yl)piperidin-3-yl)-[1,2,4]triazolo[1,5-c]quinazolin-5-amine]	470 nM	4.1 nM	
COc1cc2nc(N)n3nc(C4CC(F)CN(c5cnn(C6CCOCC6)c5)C4)nc3c2cc1F (single isomer, unassigned) [Example 56, 9-fluoro-2-((3R,5S or 3S,5R)-5-fluoro-1-(1-(tetrahydro-2H-pyran-4-yl)-1H-pyrazol-4-yl)piperidin-3-yl)-8-methoxy-[1,2,4]triazolo[1,5-c]quinazolin-5-amine]	846 nM	1.8 nM	
COc1cc2nc(N)n3nc([C@@H]4CC[C@H](C)N(c5cnn(C6CCC(C)(O)CC6)c5)C4)nc3c2cc1F (single isomer, unassigned) [Example 97, rac-(1r,4r or 1r,4s)-4-(4-((2S,5R or 2R,5S)-5-(5-amino-9-fluoro-8-methoxy-[1,2,4]triazolo[1,5-c]quinazolin-2-yl)-2-methylpiperidin-1-yl)-1H-pyrazol-1-yl)-1-methylcyclohexan-1-ol]	33.3 nM	0.6 nM	
COc1cc2nc(N)n3nc([C@@H]4CCCN(c5cnn(CC(C)(C)O)c5C)C4)nc3c2cc1F [Example 8, (R)-1-(4-(3-(5-amino-9-fluoro-8-methoxy-[1,2,4]triazolo [1,5-c]quinazolin-2-yl)piperidin-l-yl)-5-methyl-1H-pyrazol-1-yl)-2-methylpropan-2-ol]	149 nM	4.5 nM	
COc1cc2nc(N)n3nc([C@H]4CN(c5cnn(CC(C)(C)O)c5C)CCO4)nc3c2cc1F [Example 141, (R)-1-(4-(2-(5-amino-9-fluoro-8-methoxy-[1,2,4]triazolo[1,5-c]quinazolin-2-yl)morpholino)-5-methyl-1H-pyrazol-1-yl)-2-methylpropan-2-ol]	1760 nM	24.1 nM	
COc1cc2nc(N)n3nc(C4CN(c5cnn(CC(C)(C)O)c5C)CCS4(=O)=O)nc3c2cc1F (single isomer, unassigned) [Example 145, (S or R)-2-(5-amino-9-fluoro-8-methoxy-[1,2,4]triazolo[1,5-c]quinazolin-2-yl)-4-(1-(2-hydroxy-2-methylpropyl)-5-methyl-1H-pyrazol-4-yl)thiomorpholine 1,1-dioxide]	8050 nM		32% Inh. @
COc1cc(F)cc2c1nc(N)n1nc(C3CC(F)CN(c4cnn(CC5(O)CCC5)c4)C3)nc21 (single isomer, unassigned) [Example 79, 1-(4-((3S,5S or 3R,5R)-3-(5-amino-9-fluoro-7-methoxy-[1,2,4]triazolo[1,5-c]quinazolin-2-yl)-5-fluoropiperidin-1-yl)-1H-pyrazol-1-yl)methyl)cyclobutan-1-ol]	3140 nM	16 nM	
Cn1cc(N2CCCC(c3nc4c5cc(F)cc(F)c5nc(N)n4n3)C2)cn1 (single isomer, unassigned) [Example 103, (R or S)-7,9-difluoro-2-(1-(1-methyl-1H-pyrazol-4-yl)piperidin-3-yl)-[1,2,4]triazolo[1,5-c]quinazolin-5-amine]	137 nM	0.5 nM	
COc1cc2nc(N)n3nc(C4CCC(C)N(c5cnn(C6CCOCC6)c5C)C4)nc3c2cc1F (single isomer, unassigned) [Example 45, 9-fluoro-8-methoxy-2-((3R,6S or 3S,6R)-6-methyl-1-(5-methyl-1-(tetrahydro-2H-pyran-4-yl)-1H-pyrazol-4-yl)piperidin-3-yl)-[1,2,4]triazolo[1,5-c]quinazolin-5-amine]	150 nM	1.8 nM	
COc1cc2nc(N)n3nc([C@@H]4CCCN(c5ccc(OC(F)F)nc5)C4)nc3c2cc1F [Example 22, (R)-2-(1-(6-(difluoromethoxy)pyridin-3-yl)piperidin-3-yl)-9-fluoro-8-methoxy[1,2,4]triazolo[1,5-c]quinazolin-5-amine]	27.6 nM	8.6 nM	
COc1cc2nc(N)n3nc([C@@H]4CCCN(c5cnn(CS(C)(=O)=O)c5)C4)nc3c2cc1F [Example 131, (R)-9-fluoro-8-methoxy-2-(1-(1-((methylsulfonyl)methyl)-1H-pyrazol-4-yl)piperidin-3-yl)-[1,2,4]triazolo[1,5-c]quinazolin-5-amine]	66 nM	11.8 nM	

Reference: US11312719B2, “9-substituted amino triazolo quinazoline derivatives as adenosine receptor antagonists, pharmaceutical compositions and their use” (Merck Sharp & Dohme Corp., priority 2018, dated 2022)
